The values below come from the supplement of paper PMC11061612.

For test [1], the system named is SW13 (Other Solid Carcinomas). As to the kind of experiment: combination Emax (second highest fraction inhibited in the dose matrix, 72 h); higher = more inhibition; extreme values may be limits of the assay. In a few lines: (§1)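 After 24 hours at 37°C and 5% CO2 in 1536-well plates, cells in DMEM/F12 or RPMI plus 10% FBS received two-drug dose matrices for 72 hours. Viability came from CellTiter-Glo 2.0 luminescence and was scaled as inhibition, anchored at 0 by vehicle wells and at 1 by blank wells. Combination Emax is taken as the second-highest inhibition in the matrix, and Bliss excess as the observed combination effect less EA + EB − EA·EB, with EA and EB the single-agent effects.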

The subject of test [2] is NB69 (Neuroblastoma). As to the kind of experiment: Bliss excess, mean over the matrix (fraction); higher = more synergy. In a few lines:
as §1

The subject of test [3] is Ca9-22 (Head and Neck Carcinoma). The test is described as above. The essentials: as §1
The test system of test [4] is YH-13 (Glioblastoma). The description is as above. The essentials: as §1
Test [5] concerns PWR-1E (Non-Cancerous). The test is described as above. In a few lines: as §1
Test [6] relates to NUGC-3 (Gastric Carcinoma). The description is as above. In a few lines: as §1
Test [7] has as its system NEC8 (Other Solid Carcinomas). The description is as above. The essentials:
as §1

The subject of test [8] is HOP-62 (Lung Adenocarcinoma). The description is as above. In a few lines: as §1
Test [9] concerns TE-1 (Esophageal Squamous Cell Carcinoma). The test is described as above. In a few lines:
as §1

Test [10] relates to VA-ES-BJ (Other Solid Carcinomas). The description is as above. The essentials: as §1
Test [11] deals with SU8686 (Pancreatic Carcinoma). The test is described as above. In a few lines:
as §1

For test [12], the system named is TK10 (Kidney Carcinoma). Described as above. The essentials:
as §1

Test [13] relates to KMOE-2 (Acute Myeloid Leukemia). The description is as above. In a few lines:
as §1

The test system of test [14] is Caov-4 (Ovarian Carcinoma). Described as above. The essentials: as §1
Test [15] relates to HGC-27 (Gastric Carcinoma). The description is as above. The essentials:
as §1

For test [16], the system named is EoL-1-cell (Acute Myeloid Leukemia). The description is as above. In a few lines:
as §1

Test [17] deals with PANC-04-03 (Pancreatic Carcinoma). The test is described as above. The essentials:
as §1

Test [18] relates to MIA-PaCa-2 (Pancreatic Carcinoma). The test is described as above. In a few lines:
as §1

Test [19] has as its system NCI-H358 (Lung Adenocarcinoma). The test is described as above. In a few lines: as §1
Test [20] has as its system ACHN (Kidney Carcinoma). Described as above. In a few lines:
as §1

As for `CC1(C)CCC(CN2CCN(c3ccc(C(=O)NS(=O)(=O)c4ccc(NCC5CCOCC5)c([N+](=O)[O-])c4)c(Oc4cnc5[nH]ccc5c4)c3)CC2)=C(c2ccc(Cl)cc2)C1` [Venetoclax] + C[C@@H](Nc1cc(F)cc(F)c1)c1cc(C(=O)N(C)C)cc2c(=O)cc(N3CCOCC3)oc12 [AZD8186] (first compound max 1 µM, 7x7, partner max 3 µM), the “combination Emax” value in test [1] was determined as 0.128. The Bliss excess in test [2] is -0.221; in test [3], -0.0104; in test [4], -0.0336; in test [5], -0.0112; in [6], -0.0192; in test [7] it was -0.0197. Also, the Bliss excess was -0.0412 in test [8]; 0.0042 in test [9]; -0.0245 in test [10]; -0.0303 in test [11]; -0.0887 in test [12]; -0.0254 in test [13]. Besides, the Bliss excess was -0.0109 in test [14]; -0.0256 in test [15]; 0.103 in test [16]; -0.0374 in test [17]; -0.0513 in test [18]; -0.0521 in test [19]. For the same molecule, the Bliss excess in test [20] was -0.0208.
In the case of `CC1(C)CCC(CN2CCN(c3ccc(C(=O)NS(=O)(=O)c4ccc(NCC5CCOCC5)c([N+](=O)[O-])c4)c(Oc4cnc5[nH]ccc5c4)c3)CC2)=C(c2ccc(Cl)cc2)C1` [Venetoclax] + Cc1cc2ncnn2cc1Nc1ncc2c(n1)n(C1CCOCC1)c(=O)n2C [AZD7648] (first compound max 1 µM, 7x7, partner max 10 µM), in test [1], the “combination Emax” value was 0.302. Besides, the Bliss excess was 0.0069 in [2]; -0.0241 in [3]; -0.0484 in [4]; -0.0152 in [5]; 0.0247 in test [6]; 0.0282 in test [7]. Also, the Bliss excess in [8] is -0.0711; in test [9], -0.0451; in test [10], -0.0341; in test [11], -0.0195; in [12] it was -0.102; in test [13] it was -0.0596. For the same molecule, the Bliss excess in test [14] is -0.0492; in test [15] it was -0.0261; in test [16], 0.0489; in [17], -0.0617; in test [18] it was -0.0218; in test [19] it was -0.0207. Moreover, the Bliss excess in test [20] is -0.0244.
With `CC1(C)CCC(CN2CCN(c3ccc(C(=O)NS(=O)(=O)c4ccc(NCC5CCOCC5)c([N+](=O)[O-])c4)c(Oc4cnc5[nH]ccc5c4)c3)CC2)=C(c2ccc(Cl)cc2)C1` [Venetoclax] + Cn1cnc2c(F)c(Nc3ccc(Br)cc3Cl)c(C(=O)NOCCO)cc21 [Selumetinib] (first compound max 1 µM, 7x7, partner max 3 µM), in test [1], the “combination Emax” value amounted to 0.317. Also, the Bliss excess in test [2] was 0.0179; in test [3], 0.0054; in test [4], -0.0542; in test [5], -0.0327; in [6], 0.0051; in [7] it was -0.0151. Also, the Bliss excess in test [8] was -0.0155; in [9], 0.0008; in test [10], -0.0473; in test [11], -0.0792; in [12] it was -0.109; in [13], -0.0168. The Bliss excess is 0.0087 in [14]; -0.0178 in test [15]; 0.158 in [16]; -0.0633 in [17]; -0.0073 in test [18]; -0.024 in [19]. Moreover, the Bliss excess in test [20] is -0.0151.
